Tests used:
Dermacentor variabilis = test: Long lasting efficacy against D. variabilis on dogs (Example 6, Table 53); type: in vivo
Description: Forty two beagles were allotted to seven groups of six dogs each. Groups 1 and 2 served as untreated controls. Groups 3, 4 and 5 were each treated on Day 0 with three different compositions of the invention described in Tables 30, 31 and 32, respectively, containing Compound A in an amount to deliver a dose of about 20 mg/kg of body weight. Similarly, on Day 0, Groups 6 and 7 were each treated with the compositions described in Tables 30 and 32, respectively, containing Compound A to deliver a dose of about 20 mg/kg of body weight.
Dogs in Groups 1, 3, 4 and 5 were infested with approximately 50 A. americanum and dogs in Groups 2, 6 and 7 were infested with approximately 50 D. variabilis on Days −1, 42, 56, 70, 77, 84, 91 and 98. Dogs in Groups 1, 2, 3, 6 and 7 were also infested on Day 105. Ticks were counted upon removal at approximately 48 hours post treatment on Day 2 and 48 hours post infestation on Days 44, 58, 72, 79, 86, 93, 100 and 107. Tables 52 and 53 below show the exceptional long-lasting efficacy of the inventive compositions against A. americanum and D. variabilis.

[1] = Plasma concentration of Compound A in dogs after oral administration (FIG. 5); type: in vivo; conditions: soft chews at 20 mg/kg and 40 mg/kg compared with polyethylene glycol/alcohol solution at 25 mg/kg
Description: Although the extremely high bioavailability of the chewable compositions is in part due to the physicochemical properties of the isoxazoline active agents, the high levels observed from the chewable compositions of the invention are made possible by the presence and combination of the non-active excipients, which ensure complete and predictable dissolution of the composition and maintain the active agents in solution in the digestive tract of the animal. […] This plot compares the plasma concentration of an isoxazoline active agent (Compound A) delivered from soft chewable compositions of the invention designed to deliver 20 mg/kg and 40 mg/kg of body weight with administration of a polyethylene glycol/alcohol solution of the active agent at 25 mg/kg body weight. […] This is particularly surprising since the chewable compositions are in the form of a solid that must disintegrate and completely release and solubilize the active agent for efficient absorption during digestion. One would expect the solution to provide higher bioavailability because the active agent is completely dissolved when administered.

[2] = test system: fleas (Ctenocephalides felis); test: Efficacy of soft chews against induced flea infestations on dogs (Example 2); type: in vivo; conditions: for % Reduction Fleas: soft chew of Table 6, once on Day 0, dogs; for Percent reduction (efficacy) against fleas: Table 6 soft chew, treated once on Day 0, dogs
Description: Sixteen beagles were studied to determine the effectiveness of a soft chewable veterinary composition comprising Compound A against induced infestations of Dermacentor variabilis and Ctenocephalides felis.
Four Treatment Groups containing four dogs each were formed. Dogs in Group 1 were untreated. […] All dogs were treated once on Day 0.
All dogs were infested with approximately 100 C. felis on Days −1, 8, 15, 22, 29, 35, 43, 57 and 71. All dogs were also infested with approximately 50 D. variabilis on Days −1, 7, 14, 21, 28, 34 and 42. Both ticks and fleas were counted upon removal on Days 2, 9, 16, 23, 30, 36 and 44. Fleas were counted upon removal for all Treatment Groups on Days 58 and 72.

[3] = test system: fleas (Ctenocephalides felis); test: Efficacy and speed of kill against fleas on dogs (Example 3); type: in vivo
Description: Three Treatment Groups were formed. Dogs in Group 1 were untreated. […] Groups 1 and 2 contained 12 dogs each and Group 3 contained 4 dogs. All dogs were treated once on Day 0.
All dogs were infested with approximately 75 C. felis on Days 0 and 7. The dogs in Group 3 and dogs in pre-allocated subgroups in Groups 1 and 2 were also infested with approximately 75 C. felis on Days 14, 21 and 28. Fleas were counted upon removal from selected subjects at 30 minutes, 4 hours, and 12 hours after treatment or infestation on Days 0 and 7. On Days 14, 21 and 28, fleas were counted upon removal from selected subjects at 8 and 12 hours after infestation. […] Following infestation at later timepoints, the composition started working within 30 minutes, and by 12 hours after infestation on Days 7, 14 and 21, efficacy of >98% was achieved.

Ixodes holocyclus = test: Efficacy against induced Ixodes holocyclus infestations on dogs (Example 5)

## O=C(CNC(=O)c1ccc(C2=NOC(c3cc(Cl)cc(C(F)(F)F)c3)(C(F)(F)F)C2)c2ccccc12)NCC(F)(F)F (centres unmarked) [Compound A, 4-[5-[3-chloro-5-(trifluoromethyl)phenyl]-4,5-dihydro-5-(trifluoromethyl)-3-isoxazolyl]-N-[2-oxo-2-[(2,2,2-trifluoroethyl)amino]ethyl]-1-naphthalenecarboxamide]
Dermacentor variabilis; Group 6, composition of Table 30, about 20 mg/kg once on Day 0, dogs, Day 2
  % Reduction Ticks: 100.0%
Dermacentor variabilis; Group 6, composition of Table 30, about 20 mg/kg once on Day 0, dogs, Day 44
  % Reduction Ticks: 100.0%
Dermacentor variabilis; Group 6, composition of Table 30, about 20 mg/kg once on Day 0, dogs, Day 58
  % Reduction Ticks: 99.5%
Dermacentor variabilis; Group 6, composition of Table 30, about 20 mg/kg once on Day 0, dogs, Day 72
  % Reduction Ticks: 100.0%
Dermacentor variabilis; Group 6, composition of Table 30, about 20 mg/kg once on Day 0, dogs, Day 79
  % Reduction Ticks: 98.8%
Dermacentor variabilis; Group 6, composition of Table 30, about 20 mg/kg once on Day 0, dogs, Day 86
  % Reduction Ticks: 100.0%
Dermacentor variabilis; Group 6, composition of Table 30, about 20 mg/kg once on Day 0, dogs, Day 93
  % Reduction Ticks: 98.9%
Dermacentor variabilis; Group 6, composition of Table 30, about 20 mg/kg once on Day 0, dogs, Day 100
  % Reduction Ticks: 99.4%
Dermacentor variabilis; Group 6, composition of Table 30, about 20 mg/kg once on Day 0, dogs, Day 107
  % Reduction Ticks: 99.4%
Dermacentor variabilis; Group 7, composition of Table 32, about 20 mg/kg once on Day 0, dogs, Day 2
  % Reduction Ticks: 100.0%
Dermacentor variabilis; Group 7, composition of Table 32, about 20 mg/kg once on Day 0, dogs, Day 44
  % Reduction Ticks: 100.0%
Dermacentor variabilis; Group 7, composition of Table 32, about 20 mg/kg once on Day 0, dogs, Day 58
  % Reduction Ticks: 100.0%
Dermacentor variabilis; Group 7, composition of Table 32, about 20 mg/kg once on Day 0, dogs, Day 72
  % Reduction Ticks: 100.0%
Dermacentor variabilis; Group 7, composition of Table 32, about 20 mg/kg once on Day 0, dogs, Day 79
  % Reduction Ticks: 100.0%
Dermacentor variabilis; Group 7, composition of Table 32, about 20 mg/kg once on Day 0, dogs, Day 86
  % Reduction Ticks: 100.0%
Dermacentor variabilis; Group 7, composition of Table 32, about 20 mg/kg once on Day 0, dogs, Day 93
  % Reduction Ticks: 97.9%
Dermacentor variabilis; Group 7, composition of Table 32, about 20 mg/kg once on Day 0, dogs, Day 100
  % Reduction Ticks: 100.0%
Dermacentor variabilis; Group 7, composition of Table 32, about 20 mg/kg once on Day 0, dogs, Day 107
  % Reduction Ticks: 100.0%
[1]
  Plasma concentration of Compound A: significantly higher plasma levels
[2]; Group 2, approximately 1.5 mg/kg, Day 2
  % Reduction Fleas: 100.0%
[2]; Group 2, approximately 1.5 mg/kg, Day 9
  % Reduction Fleas: 100.0%
[2]; Group 2, approximately 1.5 mg/kg, Day 16
  % Reduction Fleas: 100.0%
[2]; Group 2, approximately 1.5 mg/kg, Day 23
  % Reduction Fleas: 100.0%
[2]; Group 2, approximately 1.5 mg/kg, Day 30
  % Reduction Fleas: 100.0%
[2]; Group 2, approximately 1.5 mg/kg, Day 36
  % Reduction Fleas: 99.2%
[2]; Group 2, approximately 1.5 mg/kg, Day 44
  % Reduction Fleas: 97.8%
[2]; Group 2, approximately 1.5 mg/kg, Day 58
  % Reduction Fleas: 89.4%
[2]; Group 2, approximately 1.5 mg/kg, Day 72
  % Reduction Fleas: 79.6%
[2]; Group 3, approximately 2.5 mg/kg, Day 2
  % Reduction Fleas: 100.0%
[2]; Group 3, approximately 2.5 mg/kg, Day 9
  % Reduction Fleas: 100.0%
[2]; Group 3, approximately 2.5 mg/kg, Day 16
  % Reduction Fleas: 100.0%
[2]; Group 3, approximately 2.5 mg/kg, Day 23
  % Reduction Fleas: 100.0%
[2]; Group 3, approximately 2.5 mg/kg, Day 30
  % Reduction Fleas: 100.0%
[2]; Group 3, approximately 2.5 mg/kg, Day 36
  % Reduction Fleas: 100.0%
[2]; Group 3, approximately 2.5 mg/kg, Day 44
  % Reduction Fleas: 99.3%
[2]; Group 3, approximately 2.5 mg/kg, Day 58
  % Reduction Fleas: 96.7%
[2]; Group 3, approximately 2.5 mg/kg, Day 72
  % Reduction Fleas: 94.4%
[2]; Group 4, approximately 3.5 mg/kg, Day 2
  % Reduction Fleas: 100.0%
[2]; Group 4, approximately 3.5 mg/kg, Day 9
  % Reduction Fleas: 100.0%
[2]; Group 4, approximately 3.5 mg/kg, Day 16
  % Reduction Fleas: 100.0%
[2]; Group 4, approximately 3.5 mg/kg, Day 23
  % Reduction Fleas: 100.0%
[2]; Group 4, approximately 3.5 mg/kg, Day 30
  % Reduction Fleas: 100.0%
[2]; Group 4, approximately 3.5 mg/kg, Day 36
  % Reduction Fleas: 99.6%
[2]; Group 4, approximately 3.5 mg/kg, Day 44
  % Reduction Fleas: 98.3%
[2]; Group 4, approximately 3.5 mg/kg, Day 58
  % Reduction Fleas: 95.2%
[2]; Group 4, approximately 3.5 mg/kg, Day 72
  % Reduction Fleas: 80.6%
[2]; through Day 44, all groups (approx. 1.5, 2.5 or 3.5 mg/kg)
  Percent reduction (efficacy) against fleas: above 95%
[2]; through Day 58, Groups 3 and 4
  Percent reduction (efficacy) against fleas: above 95%
[2]; through and including Day 30, all treatment groups (approx. 1.5, 2.5 or 3.5 mg/kg)
  Percent reduction (efficacy) against fleas: 100%
[3]; 12 hours after administration on Day 0, soft chews of Tables 7 and 8, approx. 2.5 mg/kg
  Flea efficacy: 100%
[3]; after treatment on Day 0, approx. 2.5 mg/kg
  Time until compositions started working against fleas: ≤ 30 min
[3]; by 12 hours after infestation on Days 7, 14 and 21, soft chews of Tables 7 and 8, approx. 2.5 mg/kg once on Day 0
  Flea efficacy: > 98%
[3]; following infestation at later timepoints, approx. 2.5 mg/kg once on Day 0
  Time until composition started working against fleas: ≤ 30 min
Ixodes holocyclus; 24 hours post infestation on Days 1, 8, 15 and 22, Table 10 soft chew, at least 2.5 mg/kg once on Day 0
  Percent efficacy: at least 95.8%
Ixodes holocyclus; 48 hours post infestation, all time points measured, once on Day 0, at least 2.5 mg/kg Compound A (Table 10), combination plus at least 0.5 mg/kg milbemycin oxime (Table 13)
  Percent efficacy: at least 98.7%
Ixodes holocyclus; 72 hours post infestation, all time points measured, once on Day 0, at least 2.5 mg/kg Compound A (Table 10), combination plus at least 0.5 mg/kg milbemycin oxime (Table 13)
  Percent efficacy: at least 99.2%
